Laboratory results published in article PMC9151520 (Archives of Toxicology, 2022).
Several values for one entry are separate records, joined by “and”; a condition that tells them apart may be missing. Equal values may be shown once. Read-outs that look alike come from different tables or passages of the source.

Key:
[1] = test system: p53 signaling (p53RE-bla HCT-116 cells); assay: cells; assay type: cell-based
[2] = test system: p53RE-bla HCT-116 cells
[3] = test system: p53 signaling (p53RE-bla HCT-116 cells); conditions: for EC50: read-out: p53 activation EC50, HLM
[4] = test system: p53 signaling (p53RE-bla HCT-116 cells)
[5] = Homo sapiens, HCT-116, read-out: p53 activation EC50, cherry pick confirmation
[6] = Homo sapiens, HCT-116, read-out: p53 activation EC50, primary screening
[7] = Homo sapiens, HCT-116, read-out: p53 activation efficacy, cherry pick confirmation
[8] = Homo sapiens, HCT-116, read-out: p53 activation efficacy, primary screening
[9] = Homo sapiens, HCT-116, read-out: EC50, p53 activation, primary screening
[10] = Homo sapiens, HCT-116, read-out: Efficacy, p53 activation, primary screening

| Compound | EC50 [1, 5] [µM] | EC50 [1, 6] [µM] | Emax [1, 7] [%] | Emax [1, 8] [%] | Viability EC50, cherry pick confirmation [2] | Viability EC50, primary screening [2] | Viability efficacy, cherry pick confirmation [2] | Viability efficacy, primary screening [2] | p53 activation EC50, cherry pick confirmation [3] | p53 activation EC50, primary screening [3] | p53 activation efficacy, cherry pick confirmation [3] | p53 activation efficacy, primary screening [3] | p53 activation EC50, cherry pick confirmation [4] | p53 activation EC50, primary screening [4] | p53 activation efficacy, cherry pick confirmation [4] | p53 activation efficacy, primary screening [4] | further results |
| --- | --- | --- | --- | --- | --- | --- | --- | --- | --- | --- | --- | --- | --- | --- | --- | --- | --- |
| NC(=O)c1ncn([C@@H]2O[C@H](CO)[C@@H](O)[C@H]2O)n1 [Ribavirin] | 10.8 | 24.3 | 43.7 | 31.4 | inactive | inactive | inactive | inactive | inactive | inactive | inactive | inactive | inactive | inactive | inactive | inactive |  |
| CN1CCC(Nc2ncc3ncnc(Nc4ccc(F)c(Cl)c4)c3n2)CC1.Cl.Cl [Falnidamol dihydrochloride] |  |  |  |  |  |  |  |  |  |  |  |  |  |  |  |  | EC50 ([1]; read-out: p53 activation EC50, No MS): 16.7 µM and 12.9 µM; Viability EC50, HLM [2]: inactive; Viability EC50, No MS [2]: inactive; Viability EC50, RLM [2]: inactive; Viability Efficacy, HLM [2]: inactive; Viability Efficacy, No MS [2]: inactive; Viability Efficacy, RLM [2]: inactive; p53 activation EC50, HLM [3]: inactive; EC50 [3]: 14.2 µM; EC50 ([4]; read-out: p53 activation EC50, RLM): 17.2 µM and 8.9 µM |
| CC/C(=C(/CC)c1ccc(O)cc1)c1ccc(O)cc1 [Diethylstilbestrol] |  |  |  | 42.5 | inactive | inactive | inactive |  | inactive | inactive | inactive | inactive | inactive | inactive | inactive | inactive | p53 activation EC50, cherry pick confirmation [1]: inactive; p53 activation efficacy, cherry pick confirmation [1]: inactive |
| CC(CN1CC(=O)NC(=O)C1)N1CC(=O)NC(=O)C1 (stereo not shown) [Razoxane] | 20.9 | 11.5 | 31.9 | 60.2 | inactive | inactive | inactive | inactive | inactive | inactive | inactive | inactive | inactive | inactive | inactive | inactive |  |
| Thimerosal |  |  |  |  |  |  |  |  |  |  |  |  |  |  |  |  | p53 activation Efficacy, No MS [1]: 73.3573% and 52.656%; EC50 ([2]; read-out: Viability EC50, HLM): 10.6 µM and 8.9 µM; EC50 ([2]; read-out: Viability EC50, No MS): 8.56 µM and 9.16 µM; EC50 ([2]; read-out: Viability EC50, RLM): 8.9 µM; p53 activation EC50, HLM [3]: inactive; EC50 [3]: 5.03 µM; p53 activation EC50, RLM [4]: inactive; p53 activation Efficacy, RLM [4]: inactive |
| Oc1ccc(Oc2ccccc2)cc1 [4-Phenoxyphenol] |  |  |  |  |  |  |  |  |  |  |  |  |  |  |  |  | EC50, p53 activation, cherry pick confirmation [1]: inactive; Efficacy, p53 activation, cherry pick confirmation [1]: inactive; EC50 [1, 9]: 25.6 µM; Emax [1, 10]: 32.4%; EC50, viability, cherry pick confirmation [2]: inactive; EC50, viability, primary screening [2]: inactive; Efficacy, viability, cherry pick confirmation [2]: inactive; Efficacy, viability, primary screening [2]: inactive; EC50, p53 activation, cherry pick confirmation [3]: inactive; EC50, p53 activation, primary screening [3]: inactive; Efficacy, p53 activation, cherry pick confirmation [3]: inactive; Efficacy, p53 activation, primary screening [3]: inactive; EC50, p53 activation, cherry pick confirmation [4]: inactive; EC50, p53 activation, primary screening [4]: inactive; Efficacy, p53 activation, cherry pick confirmation [4]: inactive; Efficacy, p53 activation, primary screening [4]: inactive |
| Nc1cc(Cl)c(-c2cc(Cl)c(N)cc2Cl)cc1Cl [2,2',5,5'-Tetrachlorobenzidine] |  |  |  |  | inactive |  |  |  | inactive | inactive | inactive | inactive | inactive | inactive | inactive | inactive | p53 activation efficacy, cherry pick confirmation [1]: 92.1083; p53 activation efficacy, primary screening [1]: 80.5693; EC50 ([1]; read-out: p53 activation EC50, cherry pick confirmation): 36.2 µM; EC50 ([1]; read-out: p53 activation EC50, primary screening): 17.8 µM; EC50 ([2]; read-out: Viability EC50, cherry pick confirmation): 49.4 µM and 51.3 µM; EC50 ([2]; read-out: Viability EC50, primary screening): 49.5 µM (2×) and 37.5 µM |
| CNC(=O)Oc1ccccc1OC(C)C [Propoxur] |  |  |  |  |  |  |  |  |  |  |  |  |  |  |  |  | p53 activation EC50 [1]: inactive; p53 activation efficacy [1]: inactive; Viability EC50 [2]: inactive; Viability efficacy [2]: inactive; p53 activation EC50 [3]: inactive; p53 activation EC50 [4]: inactive |
| CNC(=O)Oc1cccc2c1OC(C)(C)C2 [Carbofuran] |  |  |  |  |  |  |  |  |  |  |  |  |  |  |  |  | p53 activation EC50 [1]: inactive; p53 activation efficacy [1]: inactive; Viability EC50 [2]: inactive; Viability efficacy [2]: inactive; p53 activation EC50 [3]: inactive; p53 activation EC50 [4]: inactive |
| O=C(Nc1cccc(C(F)(F)F)c1)c1cc(Br)cc(Br)c1O [Fluorosalan] |  |  |  |  |  |  |  |  |  |  |  |  |  |  |  |  | EC50 ([1]; Homo sapiens, HCT-116, read-out: EC50, p53 activation, cherry pick confirmation): 27.3 µM; EC50 [1, 9]: 17.6 µM; Emax ([1]; Homo sapiens, HCT-116, read-out: Efficacy, p53 activation, cherry pick confirmation): 47.5%; Emax [1, 10]: 33.3%; EC50, viability, cherry pick confirmation [2]: inactive; EC50, viability, primary screening [2]: inactive; Efficacy, viability, cherry pick confirmation [2]: inactive; Efficacy, viability, primary screening [2]: inactive; EC50, p53 activation, cherry pick confirmation [3]: inactive; EC50, p53 activation, primary screening [3]: inactive; Efficacy, p53 activation, cherry pick confirmation [3]: inactive; Efficacy, p53 activation, primary screening [3]: inactive; EC50, p53 activation, cherry pick confirmation [4]: inactive; EC50, p53 activation, primary screening [4]: inactive; Efficacy, p53 activation, cherry pick confirmation [4]: inactive; Efficacy, p53 activation, primary screening [4]: inactive |
| O=C(O)Cc1ccccc1Nc1c(Cl)cccc1Cl [Diclofenac sodium] |  |  |  |  |  |  |  |  |  |  |  |  |  |  |  |  | EC50, p53 activation, cherry pick confirmation [1]: inactive; Efficacy, p53 activation, cherry pick confirmation [1]: inactive; EC50 [1, 9]: 51.3 µM; Emax [1, 10]: 38.2%; EC50, viability, cherry pick confirmation [2]: inactive; EC50, viability, primary screening [2]: inactive; Efficacy, viability, cherry pick confirmation [2]: inactive; Efficacy, viability, primary screening [2]: inactive; EC50, p53 activation, cherry pick confirmation [3]: inactive; EC50, p53 activation, primary screening [3]: inactive; Efficacy, p53 activation, cherry pick confirmation [3]: inactive; Efficacy, p53 activation, primary screening [3]: inactive; EC50, p53 activation, cherry pick confirmation [4]: inactive; EC50, p53 activation, primary screening [4]: inactive; Efficacy, p53 activation, cherry pick confirmation [4]: inactive; Efficacy, p53 activation, primary screening [4]: inactive |
| CCOC(=O)CCN(SN(C)C(=O)Oc1cccc2c1OC(C)(C)C2)C(C)C [Benfuracarb] |  |  |  |  |  |  |  |  |  |  |  |  |  |  |  |  | p53 activation EC50 [1]: inactive; p53 activation efficacy [1]: inactive; Viability EC50 [2]: inactive; Viability efficacy [2]: inactive; p53 activation EC50 [3]: inactive; p53 activation EC50 [4]: inactive |
| COc1c(C)c2c(c(O)c1C/C=C(\C)CCC(=O)OCCN1CCOCC1)C(=O)OC2 [Mycophenolate mofetil] | 0.209 | 0.163 | 56.2 | 36.3 | inactive | inactive | inactive | inactive | inactive | inactive | inactive | inactive | inactive | inactive | inactive | inactive |  |
| CCCSc1ccc2nc(NC(=O)OC)[nH]c2c1 [Albendazole] | 0.113 | 0.517 | 31.1 | 40.1 | inactive | inactive | inactive | inactive | inactive | inactive | inactive | inactive | inactive | inactive | inactive | inactive |  |
| COc1c(C)c2c(c(O)c1C/C=C(\C)CCC(=O)O)C(=O)OC2 [Mycophenolic acid] | 0.172 | 0.174 | 58.4 | 42.7 | inactive | inactive | inactive | inactive | inactive | inactive | inactive | inactive | inactive | inactive | inactive | inactive |  |
